Reference: US4771055A, “7-[[3-(aminomethyl)-3-alkyl]-1-pyrrolidinyl]-quinoline-carboxylic acids” (Warner-Lambert Company, priority 1987, dated 1988)
≈ marks a conversion by molar mass, not a printed value. Like-named read-outs stand apart in the source and are kept apart here.

What was measured:
[1] = test system: Enterobacter cloacae MA 2646; experiment: In vitro antibacterial activity, MIC, microtitration dilution method; assay type: cell-based; conditions: MA2646, read-out: Minimal Inhibitory Concentration MIC
Source text: (§1) The compounds of the invention display potent antibacterial activity against both gram-positive and -negative bacteria when tested by the microtitration dilution method as described in Heifetz, et al, Antimicr. Agents & Chemoth., 6, 124 (1974), which is incorporated herein by reference.

Escherichia coli Vogel = experiment: as above; assay type: cell-based; conditions: read-out: Minimal Inhibitory Concentration MIC
Source text: as §1

[2] = test system: Klebsiella pneumoniae MGH-2; experiment: as above; assay type: cell-based; conditions: MGH2, read-out: Minimal Inhibitory Concentration MIC
Source text: as §1

Proteus rettgeri M 1771 = experiment: as above; assay type: cell-based; conditions: Providencia rettgeri, M1771, read-out: Minimal Inhibitory Concentration MIC
Source text: as §1

[3] = test system: Pseudomonas aeruginosa UI-18; experiment: as above; assay type: cell-based; conditions: UI18, read-out: Minimal Inhibitory Concentration MIC
Source text: as §1

[4] = test system: Staphylococcus aureus H 228; experiment: as above; assay type: cell-based; conditions: H228, read-out: Minimal Inhibitory Concentration MIC
Source text: as §1

[5] = test system: Staphylococcus aureus UC-76; experiment: as above; assay type: cell-based; conditions: UC76, read-out: Minimal Inhibitory Concentration MIC
Source text: as §1

[6] = test system: Streptococcus faecalis MGH-2; experiment: as above; assay type: cell-based; conditions: Enterococcus faecalis, MGH2, read-out: Minimal Inhibitory Concentration MIC
Source text: as §1

[7] = test system: Streptococcus pneumoniae SV-1; experiment: as above; assay type: cell-based; conditions: SV1, read-out: Minimal Inhibitory Concentration MIC
Source text: as §1

[8] = test system: Streptococcus pyogenes C-203; experiment: as above; assay type: cell-based; conditions: C203, read-out: Minimal Inhibitory Concentration MIC
Source text: as §1

E. coli = experiment: Acute mouse protection test (PD50); assay type: in vivo; conditions: Escherichia coli, mice, read-out: Protective Dose 50% PD50
Procedure: (§2) The advantage of the compounds of the present invention has been observed when tested orally and compared to a standard quinolone where the 7-position contains a corresponding 3-aminomethylpyrrolidinyl group without the additional 3-alkyl or cycloalkyl substituent.
(§3) Therapeutic activities of the compounds were compared to acute mouse protection tests in which 18- to 22-g female Charles River CD-1 mice were used. Oral or subcutaneous doses in twofold rising incremental series were administered concurrently with bacterial challenge. Challenges were accomplished by the intraperitoneal injection of an estimated 100 medial lethal doses in 0.5 ml volumes of 5% hog gastric mucin or tryptic soy broth. Generally, >90% of the untreated controls died within 48 to 72 hours. Final survival percentages, obtained after four to seven days of observation among groups of 8 to 16 mice, were pooled and used to estimate median protective doses (PD50) by the log-probit method. Ideally a PO/SC ratio for a therapeutically relevant antibacterial should be ≤5. Table 2 indicates the improvement in PO/SC ratio.

P. aerug. = experiment: Acute mouse protection test (PD50); assay type: in vivo; conditions: mice, read-out: Protective Dose 50% PD50
Procedure: as §2, §3

S. aureus = experiment: Acute mouse protection test (PD50); assay type: in vivo; conditions: Staphylococcus aureus, mice, read-out: Protective Dose 50% PD50
Procedure: as §2, §3

S. pyog. = experiment: Acute mouse protection test (PD50); assay type: in vivo; conditions: mice, read-out: Protective Dose 50% PD50
Procedure: as §2, §3

[9] = test system: E. coli, P. aerug., S. aureus, S. pyog.; experiment: Acute mouse protection test, oral versus subcutaneous activity over all organisms; assay type: in vivo, mice; conditions: for PO/SC Ratio: ratio of PD50 PO to PD50 SC over the four organisms, mice
Procedure: as §2, §3

[10] = test system: gram-positive and -negative bacteria; experiment: In vitro antibacterial activity, microtitration dilution method (overall); assay type: cell-based; conditions: comparison with Compound A
Source text: as §1

Row | Structure (SMILES) | MIC [1] [µg/mL] | MIC (Escherichia coli Vogel) [µg/mL] | MIC [2] [µg/mL] | MIC (Proteus rettgeri M 1771) [µg/mL] | MIC [3] [µg/mL] | MIC [4] [µg/mL] | MIC [5] [µg/mL] | MIC [6] [µg/mL] | MIC [7] [µg/mL] | MIC [8] [µg/mL] | ED50 (E. coli; PO) [mg/kg] | ED50 (E. coli; SC) [mg/kg] | ED50 (P. aerug.; PO) [mg/kg] | ED50 (P. aerug.; SC) [mg/kg] | ED50 (S. aureus; PO) [mg/kg] | ED50 (S. aureus; SC) [mg/kg] | ED50 (S. pyog.; PO) [mg/kg] | ED50 (S. pyog.; SC) [mg/kg] | PO/SC Ratio [9] | other results
1 | NCC1CCN(c2c(F)cc3c(=O)c(C(=O)O)cn(C4CC4)c3c2F)C1 (stereo not shown) [Compound A, 7-[3-(aminomethyl)-1-pyrrolidinyl]-1-cyclopropyl-6,8-difluoro-1,4-dihydro-4-oxo-3-quinolinecarboxylic acid, reference compound] | 0.8 (≈ 2.2 µM) | 0.2 (≈ 0.55 µM) | 0.4 (≈ 1.1 µM) | 0.8 (≈ 2.2 µM) | 0.8 (≈ 2.2 µM) | 0.1 (≈ 0.275 µM) | 0.013 (≈ 0.0358 µM) | 0.1 (≈ 0.275 µM) | 0.012 (≈ 0.033 µM) | 0.012 (≈ 0.033 µM) | 13 | 1 | > 100 | 3 | 10 | 1 | 4 | 0.4 | ≥ 10 | –
2 | CC1(CN)CCN(c2c(F)cc3c(=O)c(C(=O)O)cn(C4CC4)c3c2F)C1 (stereo not shown) [Example 1, 7-[[3-(Aminomethyl)-3-methyl]-1-pyrrolidinyl]-1-cyclopropyl-6,8-difluoro-1,4-dihydro-4-oxo-3-quinolinecarboxylic acid] | 0.025 (≈ 0.0662 µM) | 0.05 (≈ 0.132 µM) | 0.1 (≈ 0.265 µM) | 0.2 (≈ 0.53 µM) | 0.4 (≈ 1.06 µM) | 0.013 (≈ 0.0344 µM) | ≤ 0.003 | 0.013 (≈ 0.0344 µM) | 0.006 (≈ 0.0159 µM) | 0.025 (≈ 0.0662 µM) | 2 | 1 | 38 | 18 | 5 | 2 | 9 | 3 | ≤ 3 | oral activity in mice compared to Compound A ([9]; PD50, mouse protection, comparison with Compound A): greater oral activity in mice; in vitro activity compared to Compound A [10]: comparable in vitro activity
3 | CC1(CN)CCN(c2c(F)c(N)c3c(=O)c(C(=O)O)cn(C4CC4)c3c2F)C1 (stereo not shown) [Example 2, 5-Amino-7-[[3-(aminomethyl)-3-methyl]-1-pyrrolidinyl]-1-cyclopropyl-6,8-difluoro-1,4-dihydro-4-oxo-3-quinolinecarboxylic acid] | 0.1 (≈ 0.255 µM) | 0.1 (≈ 0.255 µM) | 0.1 (≈ 0.255 µM) | 0.4 (≈ 1.02 µM) | 0.8 (≈ 2.04 µM) | 0.013 (≈ 0.0331 µM) | ≤ 0.003 | 0.025 (≈ 0.0637 µM) | ≤ 0.003 | 0.013 (≈ 0.0331 µM) | – | – | – | – | – | – | – | – | – | –
4 | CC1(CN)CCN(c2nc3c(cc2F)c(=O)c(C(=O)O)cn3C2CC2)C1 (stereo not shown) [Example 3, 7-[[3-(Aminomethyl)-3-methyl]-1-pyrrolidinyl]-1-cyclopropyl-6-fluoro-1,4-dihydro-4-oxo-1,8-naphthyridine-3-carboxylic acid] | 0.1 (≈ 0.277 µM) | 0.4 (≈ 1.11 µM) | 0.2 (≈ 0.555 µM) | 0.8 (≈ 2.22 µM) | 0.8 (≈ 2.22 µM) | 0.05 (≈ 0.139 µM) | 0.013 (≈ 0.0361 µM) | 0.05 (≈ 0.139 µM) | 0.025 (≈ 0.0694 µM) | 0.05 (≈ 0.139 µM) | – | – | – | – | – | – | – | – | – | –
5 | CC1(CN)CCN(c2c(F)cc3c(=O)c(C(=O)O)cn(C4CC4)c3c2Cl)C1 (stereo not shown) [Example 4, 7-[3-(Aminomethyl)-3-methyl-1-pyrrolidinyl]-8-chloro-1-cyclopropyl-6-fluoro-1,4-dihydro-4-oxo-3-quinolinecarboxylic acid] | 0.05 (≈ 0.127 µM) | 0.025 (≈ 0.0635 µM) | 0.05 (≈ 0.127 µM) | 0.1 (≈ 0.254 µM) | 0.2 (≈ 0.508 µM) | 0.013 (≈ 0.033 µM) | ≤ 0.003 | 0.013 (≈ 0.033 µM) | ≤ 0.003 | 0.013 (≈ 0.033 µM) | – | – | – | – | – | – | – | – | – | –
